The AC50 is the concentration giving half of the maximal activity seen. By CC50 is commonly meant the concentration giving 50% cytotoxicity. Usually Ki stands for a dissociation constant, usually derived from enzyme kinetics or from competition with a known ligand.

One assay concerns HEK293. The experiment in a line: inhibitors of LMP1-driven NF-kB reporter, dose response, cell-based, HEK293, luciferase, cherry-pick (AID 588343). It is filed as functional. The note with it: Homo sapiens.
Assay [1] in a line: A549 cell cytotoxicity, dose response, cytotoxicity control, plate reader, cherry-pick, antagonist series (AID 743412). Format: functional, cell-based.
Assay [2] can be described thus: LGR2 antagonists, dose response, cell-based, HEK293, CRE-luciferase reporter, cherry pick, set 2 (AID 743343).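 Note: transfected cells were stimulated with diluted bursicon conditioned medium after compound addition.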 It is filed as functional. (In general: In a reporter assay the amount or activity of a reporter protein is the signal.)
Assay [3] is described as follows: MC4R antagonists, dose response, counter-screen for LGR2 antagonist project, cell-based, plate reader, cherry pick (AID 743444).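 Note: transfected HEK 293 cells stimulated with alpha-MSH peptide; potency of inhibitors of the alpha-MSH evoked signal.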 It is filed as functional.
Assay [4] in a line: NIH-3T3 fibroblast cytotoxicity, dose response, cytotoxicity control, cell-based, fluorescence, Alamar Blue, secondary assay (AID 2327).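 Note: NIH-3T3 mouse fibroblasts cultured with fluconazole at 8 µg/mL.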 It is filed as functional. (Alamar Blue is a resazurin reagent that responds to reducing activity.)
Assay [5] has as its system Streptococcus sp. 'group A'. Put plainly: growth inhibition of control SK(-) GAS strain, dose response, counter-screen for streptokinase expression inhibitor project, luminescence, kanamycin, BacTiterGlo, confirmation (AID 1900). It is filed as functional, organism-based.
The nature of assay [6]: C. albicans growth with fluconazole, confirmation, fluorescence, retest (AID 2467). Format: functional, cell-based.
Assay [7] deals with T1, Serine/threonine-protein phosphatase (Candida dubliniensis (strain CD36 / CBS 7987 / NCPF 3949 / NRRLY-17841) (Yeast), UniProt B9W6M3).
T1 sequence (B9W6M3 whole entry): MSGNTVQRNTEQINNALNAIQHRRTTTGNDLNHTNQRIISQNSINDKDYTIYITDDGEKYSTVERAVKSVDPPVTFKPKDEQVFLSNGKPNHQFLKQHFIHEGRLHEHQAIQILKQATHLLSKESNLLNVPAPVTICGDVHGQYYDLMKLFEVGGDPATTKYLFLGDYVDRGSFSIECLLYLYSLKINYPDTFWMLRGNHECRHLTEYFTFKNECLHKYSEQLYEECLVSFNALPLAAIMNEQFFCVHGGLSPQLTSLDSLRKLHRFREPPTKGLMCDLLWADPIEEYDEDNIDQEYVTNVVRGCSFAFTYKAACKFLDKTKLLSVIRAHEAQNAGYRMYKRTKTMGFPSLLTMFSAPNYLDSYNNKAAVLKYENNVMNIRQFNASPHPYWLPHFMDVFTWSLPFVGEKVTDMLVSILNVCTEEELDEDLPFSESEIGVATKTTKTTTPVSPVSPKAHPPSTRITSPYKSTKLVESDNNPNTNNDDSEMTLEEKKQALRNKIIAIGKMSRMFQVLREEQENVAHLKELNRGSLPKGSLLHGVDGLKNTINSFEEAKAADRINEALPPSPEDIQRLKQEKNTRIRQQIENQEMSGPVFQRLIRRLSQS
Put plainly: calcineurin pathway inhibitors in yeast reporter, dose response, S. cerevisiae, CDRE-lacZ, luminescence, secondary (AID 2388).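 Note: yeast reporter cells carrying a calcineurin-responsive lacZ construct stimulated with calcium chloride; luminescent beta-galactosidase reporter signal in whole cells rather than isolated phosphatase activity; potency for inhibition where a drop in reporter signal means calcineurin blockade.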 Format: functional, cell-based.

The target of assay [8] is T2, Kappa-type opioid receptor (Homo sapiens, UniProt P41145). It is filed as functional.
For the next assay, the target named is Beta-galactosidase (Escherichia coli, UniProt Q8VNN2). It is filed as functional.
For assay [9], the target named is T2, Kappa-type opioid receptor. It is filed as functional. The source holds these as a separate data set.
Another assay relates to Streptococcus. The experiment in a line: Group A Streptococcus viability loss, dose response, counter-screen for streptokinase expression inhibitor project, luminescence, BacTiterGlo (AID 1915).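 Note: potency for reduction of bacterial viability or growth.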 Format: functional, organism-based. In general terms: The purpose of a counterscreen is to sort out artefacts and off-target activity.
Assay [10] deals with Heat shock protein HSP 90-alpha (Homo sapiens, UniProt P07900). Format: functional, organism-based.
A further assay has as its system Vero. Put plainly: cells. It is filed as functional. The note with it: Chlorocebus sabaeus.
Assay [11] deals with ATP-dependent molecular chaperone HSP82 (Candida albicans (strain WO-1) (Yeast), UniProt C4YTQ8). Put plainly: loss of DOC-induced GRE-beta-galactosidase reporter signal, dose response, Hsp90 inhibitor project, S. cerevisiae, luminescence (AID 2400).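 Note: beta-galactosidase luminescence from glucocorticoid response element reporter as proxy for Hsp90 function; inhibitor potency where signal loss means Hsp90 inhibition.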 Format: functional, cell-based.
Assay [12] concerns the target Matrix metalloproteinase-14 (Homo sapiens, UniProt P50281). The experiment in a line: Dose Response confirmation of uHTS hits for a small molecule inhibitors of MT1-MMP activation in a fluorescence assay set 1. It is filed as functional.
Assay [13] addresses COUP transcription factor 2 (Homo sapiens, UniProt P24468). Put plainly: Luminescence-based cell-based high throughput dose response assay to identify inhibitors of COUP-TFII (NR2F2). Format: functional.
Assay [14] deals with T3, Oxysterols receptor LXR-beta (Homo sapiens, UniProt P55055).
T3 sequence (P55055 whole entry): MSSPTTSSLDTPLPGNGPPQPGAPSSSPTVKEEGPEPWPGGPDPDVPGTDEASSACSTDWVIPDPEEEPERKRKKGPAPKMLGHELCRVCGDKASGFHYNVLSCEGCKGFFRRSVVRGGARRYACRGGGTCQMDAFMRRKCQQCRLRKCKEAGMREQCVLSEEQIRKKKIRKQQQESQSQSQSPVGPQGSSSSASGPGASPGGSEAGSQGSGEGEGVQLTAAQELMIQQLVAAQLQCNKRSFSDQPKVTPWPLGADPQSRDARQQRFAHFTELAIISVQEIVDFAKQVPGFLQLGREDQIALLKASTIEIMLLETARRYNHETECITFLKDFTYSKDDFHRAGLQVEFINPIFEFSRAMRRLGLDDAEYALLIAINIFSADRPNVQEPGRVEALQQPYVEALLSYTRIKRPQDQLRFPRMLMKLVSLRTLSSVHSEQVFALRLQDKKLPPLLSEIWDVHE
It is filed as functional, cell-based.

The target in assay [15] is Tyrosyl-DNA phosphodiesterase 2 (Homo sapiens, UniProt O95551). The experiment in a line: human TDP2 enzyme inhibitors, dose response, biochemical, epi absorbance, IC50 (AID 743297).
The target of assay [16] is FAD-linked sulfhydryl oxidase ALR (Homo sapiens, UniProt P55789). Put plainly: inhibitors of human ALR sulfhydryl oxidase, dose response, biochemical, H2O2 detection, luminescence, cherry-pick (AID 493248).
The target of assay [17] is T4, Corticotropin-releasing factor receptor 2/Corticotropin-releasing factor-binding protein (Homo sapiens, UniProt P24387+Q13324).
T4 sequence (Q13324 whole entry): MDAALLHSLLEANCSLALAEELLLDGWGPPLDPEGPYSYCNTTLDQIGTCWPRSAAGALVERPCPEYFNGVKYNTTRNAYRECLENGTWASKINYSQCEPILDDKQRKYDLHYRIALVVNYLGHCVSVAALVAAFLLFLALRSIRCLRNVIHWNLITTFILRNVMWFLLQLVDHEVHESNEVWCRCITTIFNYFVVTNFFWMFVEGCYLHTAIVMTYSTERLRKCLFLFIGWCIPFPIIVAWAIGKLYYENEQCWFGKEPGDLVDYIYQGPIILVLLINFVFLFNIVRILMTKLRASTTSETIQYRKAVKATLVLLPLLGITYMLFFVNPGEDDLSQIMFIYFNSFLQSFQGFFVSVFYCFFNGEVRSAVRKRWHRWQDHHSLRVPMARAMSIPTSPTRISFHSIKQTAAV
T4 sequence (P24387 whole entry): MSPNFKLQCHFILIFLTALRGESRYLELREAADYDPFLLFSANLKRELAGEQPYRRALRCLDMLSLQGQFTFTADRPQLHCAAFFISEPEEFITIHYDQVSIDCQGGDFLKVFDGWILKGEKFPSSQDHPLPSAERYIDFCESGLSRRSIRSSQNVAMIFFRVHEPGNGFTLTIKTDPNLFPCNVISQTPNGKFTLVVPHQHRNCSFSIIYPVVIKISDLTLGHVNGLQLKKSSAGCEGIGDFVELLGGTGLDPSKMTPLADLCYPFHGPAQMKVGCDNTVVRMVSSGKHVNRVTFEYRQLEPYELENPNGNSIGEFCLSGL
The experiment in a line: Dose Response confirmation of uHTS hits for small molecule antagonists of the CRF-binding protein and CRF-R2 receptor complex. It is filed as functional. The note with it: read-out: IC50_Mean.

For assay [18], the target named is T4, Corticotropin-releasing factor receptor 2/Corticotropin-releasing factor-binding protein. The experiment in a line: activators of CRF receptor 2 with binding protein – uHTS hits, confirmation (AID 602473). Format: functional. The note with it: read-out: EC50_Mean.
The next assay addresses fMet-Leu-Phe receptor (Homo sapiens, UniProt P21462). The experiment in a line: FPR ligands, dose response (AID 519). Format: functional.
The next assay has as its target Albumin (Bos taurus, UniProt P02769). The experiment in a line: Counterscreen for inhibitors of T-cell receptor (TCR)-CD3 interaction: Fluorescence-based biochemical high throughput dose response assay to identify inhibitors of T-cell receptor (TCR)-CD3 interaction using a TAMRA-labeled BSA probe. Format: functional.
Assay [19] in a line: human group III sPLA2 inhibitors, dose response, biochemical, QFRET, IC50 (AID 743457).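 Note: green fluorescence rise as the enzyme cleaves BODIPY PC-A2 in liposomes; potency for inhibition of the enzyme.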
A short description of assay [20]: CEM21 lymphoblast cell cytotoxicity, dose response, cytotoxicity control for viral fusion inhibitor project, CellTiter-Glo luminescence, cherry-picked (AID 652042).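 Note: potency for signal decrease meaning cytotoxicity.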 Format: functional, cell-based.
In a further assay the target is Paired box protein Pax-8 (Homo sapiens, UniProt Q06710). The experiment in a line: inhibitors of PAX8-driven TPO luciferase reporter, dose response, RMG-I cells, cherry-pick (AID 687027).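 Note: luciferase reporter driven by Pax8 target thyroperoxidase promoter measured by SteadyGlo luminescence.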 It is filed as functional, cell-based.
Assay [21] is described as follows: NIH:OVCAR-3 ovarian cancer cell cytotoxicity, dose response, PAX8 inhibitor project, plate reader, dry powder samples (AID 743044). It is filed as functional, cell-based.
Assay [22] can be described thus: cytotoxicity in OVCAR8 ovarian cancer cells, dose response, PAX8 project, cell-based, plate reader, dry powder samples (AID 743197). It is filed as functional. The note with it: OVCAR-8.

The structures appear in SMILES notation. Calls of active or inactive are those of the source.

T2 sequence (P41145 whole entry): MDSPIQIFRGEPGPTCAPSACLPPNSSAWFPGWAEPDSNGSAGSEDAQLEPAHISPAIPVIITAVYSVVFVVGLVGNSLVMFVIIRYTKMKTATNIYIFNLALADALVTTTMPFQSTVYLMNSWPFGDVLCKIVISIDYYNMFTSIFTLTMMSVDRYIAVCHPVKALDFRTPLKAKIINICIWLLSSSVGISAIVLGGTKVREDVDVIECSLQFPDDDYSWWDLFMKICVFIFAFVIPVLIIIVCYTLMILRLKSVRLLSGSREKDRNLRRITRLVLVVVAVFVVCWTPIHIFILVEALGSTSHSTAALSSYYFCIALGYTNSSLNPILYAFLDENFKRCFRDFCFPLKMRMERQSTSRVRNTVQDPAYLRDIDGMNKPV
Tyrosyl-DNA phosphodiesterase 2, sequence (O95551 whole entry): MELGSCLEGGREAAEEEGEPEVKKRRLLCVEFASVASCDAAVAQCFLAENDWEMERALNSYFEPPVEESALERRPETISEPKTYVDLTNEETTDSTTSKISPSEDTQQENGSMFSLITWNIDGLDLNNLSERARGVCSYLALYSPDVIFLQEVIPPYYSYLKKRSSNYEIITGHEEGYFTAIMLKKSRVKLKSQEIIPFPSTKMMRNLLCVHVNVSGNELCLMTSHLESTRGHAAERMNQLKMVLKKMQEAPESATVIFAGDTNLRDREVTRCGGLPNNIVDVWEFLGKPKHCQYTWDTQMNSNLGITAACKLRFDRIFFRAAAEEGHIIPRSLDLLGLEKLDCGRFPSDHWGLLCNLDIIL
COUP transcription factor 2, sequence (P24468 whole entry): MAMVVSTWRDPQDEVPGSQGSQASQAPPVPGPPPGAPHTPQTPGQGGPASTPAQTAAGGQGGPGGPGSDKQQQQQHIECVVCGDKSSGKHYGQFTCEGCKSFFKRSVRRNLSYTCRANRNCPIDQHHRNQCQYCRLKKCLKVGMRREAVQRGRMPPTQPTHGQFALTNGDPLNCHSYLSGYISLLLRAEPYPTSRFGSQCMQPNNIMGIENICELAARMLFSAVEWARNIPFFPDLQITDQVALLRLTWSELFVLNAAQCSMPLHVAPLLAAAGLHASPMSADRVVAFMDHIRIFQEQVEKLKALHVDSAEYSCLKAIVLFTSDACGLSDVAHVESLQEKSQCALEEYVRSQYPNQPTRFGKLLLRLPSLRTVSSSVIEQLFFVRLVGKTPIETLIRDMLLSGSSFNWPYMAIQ
Paired box protein Pax-8, sequence (Q06710 whole entry): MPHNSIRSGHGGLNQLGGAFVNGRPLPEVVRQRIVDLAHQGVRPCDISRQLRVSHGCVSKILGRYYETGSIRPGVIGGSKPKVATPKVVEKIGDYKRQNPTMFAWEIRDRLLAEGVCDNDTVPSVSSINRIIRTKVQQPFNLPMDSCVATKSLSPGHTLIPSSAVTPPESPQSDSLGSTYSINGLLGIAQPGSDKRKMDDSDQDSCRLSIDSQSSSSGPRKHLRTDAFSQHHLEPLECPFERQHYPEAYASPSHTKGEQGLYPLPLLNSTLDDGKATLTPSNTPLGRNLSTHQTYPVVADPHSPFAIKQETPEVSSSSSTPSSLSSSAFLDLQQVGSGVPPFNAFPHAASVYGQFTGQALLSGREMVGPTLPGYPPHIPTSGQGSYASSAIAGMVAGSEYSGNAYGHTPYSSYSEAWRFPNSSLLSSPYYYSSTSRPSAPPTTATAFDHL
Albumin, sequence (P02769 whole entry): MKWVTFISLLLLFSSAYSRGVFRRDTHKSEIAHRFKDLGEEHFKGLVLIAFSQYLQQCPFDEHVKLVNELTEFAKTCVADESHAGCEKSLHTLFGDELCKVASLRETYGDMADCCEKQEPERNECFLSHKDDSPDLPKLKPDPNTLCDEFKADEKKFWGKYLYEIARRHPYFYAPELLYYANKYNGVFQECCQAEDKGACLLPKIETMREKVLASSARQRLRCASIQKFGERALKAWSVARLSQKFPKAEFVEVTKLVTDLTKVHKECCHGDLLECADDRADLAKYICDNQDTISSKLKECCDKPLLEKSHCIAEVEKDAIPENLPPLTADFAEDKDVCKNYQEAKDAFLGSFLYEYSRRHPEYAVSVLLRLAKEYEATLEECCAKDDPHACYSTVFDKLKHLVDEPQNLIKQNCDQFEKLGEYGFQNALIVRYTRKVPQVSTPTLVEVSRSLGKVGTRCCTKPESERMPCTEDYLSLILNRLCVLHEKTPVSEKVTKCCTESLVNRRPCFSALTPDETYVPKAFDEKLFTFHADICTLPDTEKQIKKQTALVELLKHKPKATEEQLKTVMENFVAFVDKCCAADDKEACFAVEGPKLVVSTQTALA
Beta-galactosidase, sequence (Q8VNN2 whole entry): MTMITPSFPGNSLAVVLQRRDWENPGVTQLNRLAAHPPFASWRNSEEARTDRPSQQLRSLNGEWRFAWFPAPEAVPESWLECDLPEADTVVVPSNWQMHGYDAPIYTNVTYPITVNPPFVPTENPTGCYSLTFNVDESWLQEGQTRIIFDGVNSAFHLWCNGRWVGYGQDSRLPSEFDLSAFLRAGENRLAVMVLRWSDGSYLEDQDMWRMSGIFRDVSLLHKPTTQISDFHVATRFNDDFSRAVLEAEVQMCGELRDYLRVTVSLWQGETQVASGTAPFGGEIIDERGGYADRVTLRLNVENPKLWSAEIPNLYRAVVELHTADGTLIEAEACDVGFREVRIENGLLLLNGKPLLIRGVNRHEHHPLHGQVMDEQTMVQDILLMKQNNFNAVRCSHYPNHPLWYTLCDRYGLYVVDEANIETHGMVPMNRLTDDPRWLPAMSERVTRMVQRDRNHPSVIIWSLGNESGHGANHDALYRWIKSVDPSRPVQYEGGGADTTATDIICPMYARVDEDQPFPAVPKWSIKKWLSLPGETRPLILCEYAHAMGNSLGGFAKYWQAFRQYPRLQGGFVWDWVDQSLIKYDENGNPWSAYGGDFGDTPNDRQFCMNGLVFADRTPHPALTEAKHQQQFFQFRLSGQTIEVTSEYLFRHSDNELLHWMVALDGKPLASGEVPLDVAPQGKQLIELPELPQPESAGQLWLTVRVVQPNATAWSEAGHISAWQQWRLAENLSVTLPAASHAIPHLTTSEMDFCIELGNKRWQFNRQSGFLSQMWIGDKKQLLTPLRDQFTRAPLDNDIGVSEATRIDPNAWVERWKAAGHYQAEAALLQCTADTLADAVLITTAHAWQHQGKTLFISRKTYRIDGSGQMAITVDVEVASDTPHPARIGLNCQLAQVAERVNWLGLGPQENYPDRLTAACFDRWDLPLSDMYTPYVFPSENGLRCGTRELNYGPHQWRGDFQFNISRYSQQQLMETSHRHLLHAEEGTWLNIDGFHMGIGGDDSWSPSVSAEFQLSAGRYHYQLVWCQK
FAD-linked sulfhydryl oxidase ALR, sequence (P55789 whole entry): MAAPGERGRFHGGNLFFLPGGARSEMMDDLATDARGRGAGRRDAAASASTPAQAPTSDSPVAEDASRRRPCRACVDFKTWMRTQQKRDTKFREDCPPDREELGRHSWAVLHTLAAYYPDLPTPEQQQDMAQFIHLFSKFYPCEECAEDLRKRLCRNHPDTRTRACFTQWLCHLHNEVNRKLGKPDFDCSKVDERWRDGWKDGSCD
ATP-dependent molecular chaperone HSP82, sequence (C4YTQ8 whole entry): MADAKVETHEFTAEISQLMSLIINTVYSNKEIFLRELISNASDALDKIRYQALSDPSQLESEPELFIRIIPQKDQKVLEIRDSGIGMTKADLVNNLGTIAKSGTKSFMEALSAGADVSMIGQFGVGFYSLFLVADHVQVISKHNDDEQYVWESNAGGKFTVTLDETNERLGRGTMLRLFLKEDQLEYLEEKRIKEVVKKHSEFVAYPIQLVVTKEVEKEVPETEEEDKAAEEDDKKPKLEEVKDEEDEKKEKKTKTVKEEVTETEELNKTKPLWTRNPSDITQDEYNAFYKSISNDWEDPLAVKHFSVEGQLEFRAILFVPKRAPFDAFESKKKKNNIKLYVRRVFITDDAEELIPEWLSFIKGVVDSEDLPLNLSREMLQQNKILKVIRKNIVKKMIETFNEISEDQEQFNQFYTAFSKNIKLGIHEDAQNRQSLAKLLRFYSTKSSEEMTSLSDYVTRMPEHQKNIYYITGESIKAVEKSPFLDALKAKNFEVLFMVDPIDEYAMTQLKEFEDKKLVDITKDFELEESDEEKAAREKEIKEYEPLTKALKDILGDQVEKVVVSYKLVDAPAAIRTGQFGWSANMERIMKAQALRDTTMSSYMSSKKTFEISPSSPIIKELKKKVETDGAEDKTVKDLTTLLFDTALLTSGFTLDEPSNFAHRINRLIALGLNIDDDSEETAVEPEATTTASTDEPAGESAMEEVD
fMet-Leu-Phe receptor, sequence (P21462 whole entry): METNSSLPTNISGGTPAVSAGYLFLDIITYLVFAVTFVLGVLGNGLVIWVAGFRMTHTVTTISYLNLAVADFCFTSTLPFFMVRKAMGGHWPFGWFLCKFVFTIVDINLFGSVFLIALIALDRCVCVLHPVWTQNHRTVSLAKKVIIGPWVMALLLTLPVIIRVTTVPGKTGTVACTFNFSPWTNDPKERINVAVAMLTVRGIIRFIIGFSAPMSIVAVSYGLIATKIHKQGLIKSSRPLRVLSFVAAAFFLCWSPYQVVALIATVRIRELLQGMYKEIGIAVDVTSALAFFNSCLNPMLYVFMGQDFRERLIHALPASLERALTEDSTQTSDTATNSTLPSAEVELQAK

For the compound `O=C(Nc1ccc(N2CCOCC2)cc1)c1cnccn1`, the half-maximal activity concentration (AC50) in the assay with HEK293 was 2.09 µM (active); in assay [1], > 52 µM (inactive); in [2], 4.37 µM (active); in assay [3], 3.9 µM (active).
As to `COc1ccc(C)cc1N=Nc1ccc(O)c2ncccc12`, the EC50 in [4] is 11.1 µM (active); in [5], 0.357 µM (active); in assay [6], 0.598 µM (active); in assay [7] it was > 180 µM (inactive); at Beta-galactosidase, 23.6 µM (active); with Streptococcus, 2.67 µM (active). Besides, the EC50 in [11] was 2.92 µM (active). Also, the values for the IC50 in assay [8], in assay [9] and in assay [12] were > 31.5 µM (inactive), greater than 32 µM and 23.8 µM (inactive), respectively. In addition, the AC50 in assay [10] is 1.57 µM (active). For the same compound, the CC50 in the assay on Vero is 5.17 µM (active).
With `Cc1sc(NC(=O)CN2CCOCC2)nc1-c1ccc2c(c1)CCN2S(=O)(=O)c1ccccc1`, the IC50 in assay [13] is 8.52 µM (active).
On to `CCOc1ccc(-c2c(=O)n(O)c3ccccc3[n+]2[O-])cc1`, for which, in assay [14], the EC50 was > 67.5 µM (inactive).
Turning to `O=C(NC(=S)Nc1ccccc1N1CCCC1)c1ccco1`, in assay [15], the IC50 was > 128 µM (inactive).
For the compound `Cc1ccc(Nc2ccc(C(=O)O)cc2N)cc1`, the concentration at half-maximal activity (AC50) in assay [16] is 0.246 µM (active). Also, the IC50 in assay [17] was > 47.1 µM (inactive). Further, the EC50 in [18] was > 53 µM (inactive). In addition, the Ki at fMet-Leu-Phe receptor is > 66.7 µM (inactive).
In the case of `Cc1ccccc1NC(=O)NNC(=O)c1ccc2ccccc2c1O`, the IC50 was > 94.2 µM (inactive) on Albumin and > 122 µM (inactive) in assay [19].
`Cc1ccc(NC(=O)c2ccc(OCC3CCCO3)cc2)cc1Cl` (centres undefined): the AC50 in assay [20] is 50 µM (active).
Take `CO[C@H]1CN(C)C(=O)c2cc(NC(=O)c3ccc(-c4ccccc4)cc3)ccc2OC[C@@H](C)NC[C@@H]1C`: the AC50 at Paired box protein Pax-8 was 22.6 µM (active); in [21], 44.6 µM (active); in assay [22], 58.4 µM (active).

The values above are taken from ChEMBL document CHEMBL1201862, “PubChem BioAssay data set” (2004).
